Data published in ChEMBL document CHEMBL3045325, “Comparative Studies of Elicitors That Induce Phytoalexin in Oats” (1996).
Activity calls are given as the source filed them. The rule behind the calls is not given here.

Key:
Avena sativa [1] = assay: Induction of electrolyte leakage in Avena sativa Pc-2 leaf lower epidermis at 1 ng/ml after 24 hr by conductivity test; format: functional, organism-based
Avena sativa [2] = assay: Induction of phytoalexin avenanthramide A secretion in Avena sativa Pc-2 leaf lower epidermis at 1 ng/ml after 24 hr in presence of CaCl2; format: functional, organism-based
Avena sativa [3] = assay: Induction of phytoalexin secretion in Avena sativa Pc-2 leaf lower epidermis assessed as amount of avenanthramide D at 1 ng/ml by HPLC analysis relative to control; format: functional
Avena sativa [4] = assay: Induction of electrolyte leakage in Avena sativa Pc-2 leaf lower epidermis at 1 ng/ml after 24 hr in presence of CaCl2; format: functional, organism-based
Avena sativa [5] = assay: Induction of phytoalexin secretion in Avena sativa Pc-2 leaf lower epidermis assessed as amount of avenanthramide G at 1 ng/ml by HPLC analysis relative to control; format: functional
Avena sativa [6] = assay: Induction of phytoalexin secretion in Avena sativa Pc-2 leaf lower epidermis assessed as amount of avenanthramide A at 1 ng/ml by HPLC analysis relative to control; format: functional
Avena sativa [7] = assay: Induction of phytoalexin avenanthramide A secretion in Avena sativa Pc-2 leaf lower epidermis at 5 mg/ml after 24 hr; format: functional, organism-based
Avena sativa [8] = assay: Induction of phytoalexin avenanthramide A secretion in Avena sativa Pc-2 leaf lower epidermis at 100 ng/ml after 24 hr; format: functional, organism-based
Avena sativa [9] = assay: Induction of phytoalexin secretion in Avena sativa Pc-2 leaf lower epidermis assessed as amount of avenanthramide L at 1 ng/ml by HPLC analysis relative to control; format: functional
Avena sativa [10] = assay: Induction of phytoalexin secretion in Avena sativa Shokan-1 leaf lower epidermis assessed as amount of avenanthramide D at 1 mg/ml by HPLC analysis relative to control; format: functional
Avena sativa [11] = assay: Induction of phytoalexin secretion in Avena sativa Shokan-1 leaf lower epidermis assessed as amount of avenanthramide L at 1 mg/ml by HPLC analysis relative to control; format: functional
Avena sativa [12] = assay: Induction of phytoalexin secretion in Avena sativa Pc-2 leaf lower epidermis assessed as amount of avenanthramide G at 1 mg/ml by HPLC analysis relative to control; format: functional, organism-based
Avena sativa [13] = assay: Induction of phytoalexin secretion in Avena sativa Pc-2 leaf lower epidermis assessed as amount of avenanthramide B at 1 mg/ml by HPLC analysis relative to control; format: functional, organism-based
Avena sativa [14] = assay: Induction of electrolyte leakage in Avena sativa Shokan-1 leaf lower epidermis at 1 mg/ml after 24 hr by conductivity test; format: functional, organism-based
Avena sativa [15] = assay: Induction of phytoalexin secretion in Avena sativa Shokan-1 leaf lower epidermis assessed as amount of avenanthramide B at 1 mg/ml by HPLC analysis relative to control; format: functional
Avena sativa [16] = assay: Induction of phytoalexin secretion in Avena sativa Shokan-1 leaf lower epidermis assessed as amount of avenanthramide A at 1 mg/ml by HPLC analysis relative to control; format: functional
Avena sativa [17] = assay: Induction of phytoalexin secretion in Avena sativa Pc-2 leaf lower epidermis assessed as amount of avenanthramide D at 1 mg/ml by HPLC analysis relative to control; format: functional, organism-based
Avena sativa [18] = assay: Induction of phytoalexin secretion in Avena sativa Shokan-1 leaf lower epidermis assessed as amount of avenanthramide G at 1 mg/ml by HPLC analysis relative to control; format: functional
Avena sativa [19] = assay: Induction of phytoalexin avenanthramide A secretion in Avena sativa Shokan-1 leaf lower epidermis at 1 mg/ml upto 24 hr; format: functional, organism-based
Avena sativa [20] = assay: Induction of phytoalexin avenanthramide A secretion in Avena sativa Shokan-1 leaf lower epidermis at 1 mg/ml after 24 hr in presence of CaCl2; format: functional, organism-based
Avena sativa [21] = assay: Induction of phytoalexin avenanthramide A secretion in Avena sativa Shokan-1 leaf lower epidermis at 1 mg/ml after 24 hr; format: functional, organism-based
Avena sativa [22] = assay: Induction of phytoalexin secretion in Avena sativa Pc-2 leaf lower epidermis assessed as amount of avenanthramide A at 1 mg/ml by HPLC analysis relative to control; format: functional, organism-based
Avena sativa [23] = assay: Induction of phytoalexin secretion in Avena sativa Pc-2 leaf lower epidermis assessed as amount of avenanthramide L at 1 mg/ml by HPLC analysis relative to control; format: functional, organism-based
Avena sativa [24] = assay: Induction of phytoalexin secretion in Avena sativa Pc-2 leaf lower epidermis assessed as amount of avenanthramide A at 0.1 mg/ml by HPLC analysis relative to control; format: functional, organism-based
Avena sativa [25] = assay: Induction of phytoalexin secretion in Avena sativa Shokan-1 leaf lower epidermis assessed as amount of avenanthramide G at 0.1 mg/ml by HPLC analysis relative to control; format: functional
Avena sativa [26] = assay: Induction of phytoalexin secretion in Avena sativa Pc-2 leaf lower epidermis assessed as amount of avenanthramide D at 0.1 mg/ml by HPLC analysis relative to control; format: functional, organism-based
Avena sativa [27] = assay: Induction of phytoalexin secretion in Avena sativa Pc-2 leaf lower epidermis assessed as amount of avenanthramide G at 0.1 mg/ml by HPLC analysis relative to control; format: functional, organism-based
Avena sativa [28] = assay: Induction of phytoalexin secretion in Avena sativa Pc-2 leaf lower epidermis assessed as amount of avenanthramide L at 0.1 mg/ml by HPLC analysis relative to control; format: functional, organism-based
Avena sativa [29] = assay: Induction of phytoalexin secretion in Avena sativa Pc-2 leaf lower epidermis assessed as amount of avenanthramide B at 0.1 mg/ml by HPLC analysis relative to control; format: functional, organism-based
Avena sativa [30] = assay: Induction of phytoalexin secretion in Avena sativa Shokan-1 leaf lower epidermis assessed as amount of avenanthramide L at 0.1 mg/ml by HPLC analysis relative to control; format: functional
Avena sativa [31] = assay: Induction of electrolyte leakage in Avena sativa Shokan-1 leaf lower epidermis at 0.1 mg/ml after 24 hr by conductivity test; format: functional, organism-based
Avena sativa [32] = assay: Induction of phytoalexin secretion in Avena sativa Shokan-1 leaf lower epidermis assessed as amount of avenanthramide A at 0.1 mg/ml by HPLC analysis relative to control; format: functional
Avena sativa [33] = assay: Induction of phytoalexin secretion in Avena sativa Shokan-1 leaf lower epidermis assessed as amount of avenanthramide D at 0.1 mg/ml by HPLC analysis relative to control; format: functional
Avena sativa [34] = assay: Induction of phytoalexin secretion in Avena sativa Shokan-1 leaf lower epidermis assessed as amount of avenanthramide B at 0.1 mg/ml by HPLC analysis relative to control; format: functional
Avena sativa [35] = assay: Induction of phytoalexin avenanthramide A secretion in Avena sativa Shokan-1 leaf lower epidermis at 0.1 mg/ml after 24 hr in presence of CaCl2; format: functional, organism-based

**Q.** `CC(C)C1OC2=C(CC(C(=O)O)NC(=O)/C(=C/Cl)NC(=O)C1NC(=O)C(NC(=O)C(CC(C)C(Cl)Cl)NC(=O)C(O)O)C(O)CCCN)C(=O)CC2` (stereo not given) [VICTORIN D] was tested. Which Activity (Avena sativa [1]) did it give?
**A.** Active

**Q.** What about the Activity (Avena sativa [2]) of the same compound?
**A.** inactive

**Q.** And the “fold change (FC)” value (Avena sativa [3])?
**A.** 38.4

**Q.** What about the Activity (Avena sativa [4]) of the same compound?
**A.** inactive

**Q.** And the “fold change (FC)” value (Avena sativa [5])?
**A.** 84.6

**Q.** And the “fold change (FC)” value (Avena sativa [6])?
**A.** 100

**Q.** And the Activity (Avena sativa [7])?
**A.** inactive

**Q.** What about the Activity (Avena sativa [8]) of the same compound?
**A.** Active

**Q.** What about the “fold change (FC)” value (Avena sativa [9]) of the same compound?
**A.** 3

**Q.** For `CC(=O)N[C@H]1[C@H](O[C@H]2[C@H](O)[C@@H](NC(C)=O)[C@H](O[C@H]3[C@H](O)[C@@H](NC(C)=O)C(O)O[C@@H]3CO)O[C@@H]2CO)O[C@H](CO)[C@@H](O[C@@H]2O[C@H](CO)[C@@H](O[C@@H]3O[C@H](CO)[C@@H](O)[C@H](O)[C@H]3NC(C)=O)[C@H](O)[C@H]2NC(C)=O)[C@@H]1O` (stereo not given in full) [N-ACETYLCHITOPENTAOSE], which “fold change (FC)” value (Avena sativa [10]) is on record?
**A.** 1.9

**Q.** What about the “fold change (FC)” value (Avena sativa [11]) of the same compound?
**A.** 20.4

**Q.** And the Activity (Avena sativa [12])?
**A.** inactive

**Q.** What about the Activity (Avena sativa [13]) of the same compound?
**A.** inactive

**Q.** What about the Activity (Avena sativa [14]) of the same compound?
**A.** inactive

**Q.** And the “fold change (FC)” value (Avena sativa [15])?
**A.** 26

**Q.** And the “fold change (FC)” value (Avena sativa [16])?
**A.** 100

**Q.** What about the Activity (Avena sativa [17]) of the same compound?
**A.** inactive

**Q.** And the “fold change (FC)” value (Avena sativa [18])?
**A.** 2.8

**Q.** And the Activity (Avena sativa [19])?
**A.** Active

**Q.** And the Activity (Avena sativa [20])?
**A.** inactive

**Q.** What about the Activity (Avena sativa [21]) of the same compound?
**A.** inactive

**Q.** What about the Activity (Avena sativa [22]) of the same compound?
**A.** inactive

**Q.** And the Activity (Avena sativa [23])?
**A.** inactive

**Q.** With `N[C@H]1[C@H](O[C@H]2[C@H](O)[C@@H](N)[C@H](O[C@H]3[C@H](O)[C@@H](N)[C@H](O[C@H]4[C@H](O)[C@@H](N)[C@H](O[C@H]5[C@H](O)[C@@H](N)C(O)O[C@@H]5CO)O[C@@H]4CO)O[C@@H]3CO)O[C@@H]2CO)O[C@H](CO)[C@@H](O)[C@@H]1O` (stereo not given in full) [CHITOPENTAOSE] as the compound, how does the Activity (Avena sativa [24]) read?
**A.** inactive

**Q.** What about the “fold change (FC)” value (Avena sativa [25]) of the same compound?
**A.** 13

**Q.** And the Activity (Avena sativa [26])?
**A.** inactive

**Q.** What about the Activity (Avena sativa [27]) of the same compound?
**A.** inactive

**Q.** And the Activity (Avena sativa [28])?
**A.** inactive

**Q.** What about the Activity (Avena sativa [29]) of the same compound?
**A.** inactive

**Q.** What about the “fold change (FC)” value (Avena sativa [30]) of the same compound?
**A.** 1.4

**Q.** And the Activity (Avena sativa [31])?
**A.** Active

**Q.** What about the “fold change (FC)” value (Avena sativa [32]) of the same compound?
**A.** 100

**Q.** What about the “fold change (FC)” value (Avena sativa [33]) of the same compound?
**A.** 10.7

**Q.** What about the “fold change (FC)” value (Avena sativa [34]) of the same compound?
**A.** 3.4

**Q.** What about the Activity (Avena sativa [35]) of the same compound?
**A.** inactive
